Source: article PMC10974622, “Hybrid Peptide-Alkoxyamine Drugs: A Strategy for the Development of a New Family of Antiplasmodial Drugs” (Molecules, 2024)
Read-outs that look alike come from different tables or passages of the source.

Legend:
[1] = tested on: P. falciparum strain F32-ART (artemisinin-resistant); assay: microbe, parasite or virus in culture; assay type: cell-based, Plasmodium falciparum; details: for Selectivity Index CC50/IC50: cytotoxicity (Vero cells)/antiplasmodial activity (F32-ART) ratio
From the text: The antimalarial activity of peptide-alkoxyamine hybrids was first evaluated in the in vitro antiproliferative test (IC50) using the artemisinin-resistant strain F32-ART (Table 2, Table S1). The roles of the N-substitution of the alkoxyamine moiety (TEMPO- or DBNO-based, for example, A3L/A8L, line 1/line 10), of the configuration (L or D of the peptide, A3L/A3D, line 1/line 2), of the N-protection of the peptide (A3L/A4L or A5L, line 1/ lines 3 and 5) were examined. According to standard rules in the malaria field, only molecules having IC50 values below 1 μM were considered active.
The F32-ART (artemisinin-resistant) strain and the F32-TEM (artemisinin-sensitive strain) were cultured according to Trager and Jensen in RPMI 1640 medium (Fisher Scientific, Illkirch, France) supplemented with 5% human serum (Etablissement français du Sang, Toulouse, France) at 2% hematocrit with type O human blood (Etablissement français du Sang, Toulouse, France), 37 °C, and 5% CO2 in a humidified atmosphere.
(§1) IC50 values corresponding to 50% inhibition of P. falciparum growth were determined by SYBR Green assay, and the assessment of cytotoxicity was performed on Vero cells (cell line from the kidney of a normal adult African green monkey), as previously published. The selectivity index corresponded to the cytotoxicity/activity ratio.

Vero cells [2] = assay: in vitro; assay type: cell-based, African green monkey; details: African green monkey
Protocol: as §1

in vitro = assay type: cell-based, African green monkey; details: African green monkey, Cytotoxicity CC50
Protocol: as §1

S. mansoni = tested on: S. mansoni; parameters: method as in doi:10.1021/cr00014a008; details: 100 μg/mL, in 2 h, in vitro ref 22; cited from earlier work
Vero cells [3] = details: cited from earlier work
F32-ART parasites = assay: Parasitemia monitoring and parasite morphology upon drug exposure, F32-ART ring-stage parasites; assay type: cell-based, Plasmodium falciparum; details: 48 h exposure
Protocol: (§2) The effect of hybrid compounds against Plasmodium parasites was assessed by the microscopic examination of parasite morphology upon drug exposure. For this purpose, parasites were synchronized at 0–4 h age by percoll-sorbitol treatment, 0–24 h age by sorbitol treatment, or at schizont stage by percoll treatment at the start of the experiment. Different treatment schedules were tested. In the case of multiple doses, parasite cultures were washed before each new drug addition.

[4] = tested on: F32-ART parasites at the quiescent stage; assay: Quiescent-stage Survival Assay (QSA); assay type: cell-based, Plasmodium falciparum; details: 700 nM DHA 6 h/(DHA + molecule 7 µM) 48 h
Protocol: In this assay, parasites were exposed to dihydroartemisinin (DHA) alone to induce quiescence, prior the addition of the drug to be tested for 48 h, and then the parasite recrudescence was monitored over a maximum of 4 weeks. Activity against quiescent parasites was evidenced by a delay in recrudescence time over 6 days between the conditions “DHA 6 h / DHA 48 h” and “DHA 6 h/(DHA + molecule) 48 h”. Atovaquone was used as a positive control, and its activity against quiescent parasites was here confirmed, as expected, by an extended delay of 11 days in recrudescence time (Figure 5). By contrast, no activity of A8L and A3L against quiescent parasites was evidenced in the QSA, with similar recrudescence time between the conditions “DHA 6 h/DHA 48 h” and “DHA 6 h/(DHA + molecule) 48 h”. […] To understand this phenomenon, we explored the parasite response during treatment with these hybrid compounds.
The QSA was performed according to Reyser et al.. Briefly, ART-resistant ring-stage parasites at 3% parasitemia were exposed for 6 h to 700 nM of DHA (dihydroartemisinin) to induce quiescence or were exposed to no drugs (control condition). After that, the compound to be tested was added in both conditions […]. At the end of the treatment, the drugs were washed off with RPMI-1640, and parasites were replaced in drug-free conditions. Blood smears were performed to follow parasitemia until the day the cultures reached their starting parasitemia, defined as the recrudescence day. If after 30 days no parasite recrudescence was observed, then the data were censored. Data analysis was performed using Kaplan–Meier survival curves. Statistical significance was ascertained by using a log-rank (Mantel-Cox) test using GraphPad Prism 7 software (San Diego, CA, USA).

[5] = Kinetic analysis of alkoxyamine bond homolysis by EPR; assay type: physicochemical; details: Equation (2), A = 2.4 · 10^14 s^−1
Protocol: The kinetic homolysis for peptide-alkoxyamines reported in Table 1 was recorded in EPR using two solvents, tert-butylbenzene (t-BuPh) or an n-propanol:water (1:1, v:v) mixture. The growth of nitroxide was recorded in the presence of an alkyl radical scavenger, i.e., O2 here, to suppress the back reaction (kc in Scheme 4), as already reported.
Homolysis rate constants kd are given by Equation (1) ([nitroxide]∞ = [alkoxyamine]0 = 0.1 mM), and the subsequent activation energy values Ea are given by Equation (2), as follows:(1) lnnitroxide∞−nitroxidet/nitroxide∞=−kd·t (2) Ea=−RTlnkd/A

[6] = tested on: P. falciparum parasites at the schizont stage; assay: Efficacy on the re-invasion step, post-percoll schizonts treated 15 h; assay type: cell-based, Plasmodium falciparum
Protocol: We wondered if this activity was due to a specific effect of the drug toward the schizont stage and re-invasion step of the parasite life cycle. However, treatment of parasites at the schizont stage for 15 h with A8L had no effect on parasite viability or development (Figure 8), highlighting that the mechanism of action of A8L has yet to be identified.
as §2

[7] = tested on: F32-TEM parasites (artemisinin-sensitive); assay: Parasitemia monitoring with different treatment schedules, F32-TEM parasites; assay type: cell-based, Plasmodium falciparum
[8] = Thermolysis of A8L in DMSO with or without hemin, LC-MS; assay type: physicochemical; details: 80 °C, 1 h
Protocol: Since a putative antimalarial mechanism of action of these hybrid drugs was the alkylation of heme within the parasite food vacuole, the reactivity of the hybrid having the lower IC50 value, namely A8L (Table 2), was evaluated in the presence (or absence) of heme. In the absence of any protease activity able to cleave the tripeptide fragment, the alkoxyamine C–O bond was stable at room temperature; thus, thermolysis was carried out in DMSO at 80 °C for 1 h under an air atmosphere to achieve a nearly complete reaction (88–90% of conversion of A8L). The reaction was monitored by LC-MS analysis, and products A–F were detected and quantified (Figure 4). […] Products B, C, and D, resulting from the capture of dioxygen by the alkyl radical, were the major ones, with yields of 30%, 13%, and 21%, respectively, with respect to the starting amount of A8L. B and C have already been detected as thermolysis products of uncoupled alkoxyamine.
In a test tube equipped with a magnetic stirrer, 20 μL of a stock solution of A8L (10 mM in DMSO) was added to 180 μL of DMSO. […] Retention times and detected m/z values (amu) were as follows: JP2310, 20.8 min, 758.5 (MH^+), 702.4 (fragment); A, 27.4 min, 615.4 (MH^+); B, 21.2 min, 629.3 (MH^+); C, 20.1 min, 631.4 (MH^+); D, 20.3 min, 647.3 (MH^+); F, 25.7 min, 613.3 (MH^+); hemin, 17.3 min, 616.2 (M^+).

chymotrypsin = target: T1, chymotrypsin (Bos taurus, UniProt P00766); assay: Enzymatic activation and homolysis monitored by EPR, chymotrypsin; assay type: biochemical; details: 37 °C
T1 construct: purchased Worthington
Protocol: Due to the low solubility of A3L/D–A5L/D in water, suitable concentrations (ca. 0.1 mM) for EPR detection could not be reached. Thus, A7L was prepared, which afforded a carboxylate function at a physiological pH. […] As other PLMs were not available, chymotrypsin, a pancreatic protease that accepts substrates with Phe in the P1 position, was used to hydrolyse A7L. The release of the free alkoxyamine, which decomposed spontaneously and rapidly into alkyl radical R3• and nitroxide R1R2NO•, and the concentration in nitroxide was monitored with EPR (Figure 3).
Kinetics were performed in HEPES 50 mM buffer containing […] at 37 °C. Then, 2.5 mM of hemin (Santa Cruz biotechnology, Heidelberg, Germany) was added to scavenge the alkyl radicals. In one, kinetic Chymotrypsin (Worthington, OH, USA) was added. Activation and homolysis were monitored by reading the concentrations of released TEMPO using, versus time, a calibrated EPR spectrometer (EMX Nano, Bruker, Wissembourg, France).

Solubility in water = assay type: physicochemical
PLM I = PLM I (Plasmodium falciparum, UniProt P39898); assay: Enzymatic activation monitored by EPR, PLM I; assay type: biochemical
Chain of PLM I (P39898 124-452): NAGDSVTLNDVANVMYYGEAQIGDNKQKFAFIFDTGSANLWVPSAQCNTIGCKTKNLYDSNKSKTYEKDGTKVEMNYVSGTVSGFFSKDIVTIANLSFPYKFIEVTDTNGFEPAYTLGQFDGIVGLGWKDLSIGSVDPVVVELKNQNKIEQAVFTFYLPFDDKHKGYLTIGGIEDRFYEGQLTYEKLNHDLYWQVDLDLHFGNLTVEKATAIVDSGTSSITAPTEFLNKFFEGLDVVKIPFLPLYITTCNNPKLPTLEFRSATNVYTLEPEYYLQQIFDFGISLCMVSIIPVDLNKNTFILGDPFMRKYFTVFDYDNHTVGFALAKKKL

[9] = Plasmodium falciparum, F32, read-out: Antiplasmodial Activity IC50, strain F32-ART, SYBR Green assay, mean ± SEM of 3 to 6 experiments
[10] = read-out: Antiplasmodial Activity IC50, strain F32-ART, SYBR Green assay, mean ± SEM of 3 to 6 experiments
[11] = Plasmodium falciparum, F32, read-out: Antiplasmodial IC50, strain F32-ART

For `CC(ON1C(C)(C)CCCC1(C)C)c1ccc(NC(=O)[C@@H](Cc2ccccc2)NC(=O)[C@H](NC(=O)[C@H](N)Cc2ccccc2)C(C)C)cc1` (stereo partly drawn) [A4D], the IC50 [1, 9] was 2200 to 2600 nM, the “Selectivity Index CC50/IC50” value [1] was 1.1 and the IC50 [1, 10] was 2300 ± 300 nM. For the same molecule, the CC50 (Vero cells [2]) was 2.6 ± 0.3 µM and the CC50 (in vitro) was 2200 to 2600 nM.

For `CC(ON1C(C)(C)CCCC1(C)C)c1ccc(NC(=O)[C@H](Cc2ccccc2)NC(=O)[C@@H](NC(=O)[C@@H](N)Cc2ccccc2)C(C)C)cc1` (stereo partly drawn) [A4L], the schistosomal population killed (S. mansoni) is listed as 50%, the IC50 [1, 9] is listed as > 50000 nM and the CC50 (Vero cells [3]) is listed as > 50 µM.

`CC(ON(C(C)(C)C)C(C)(C)C)c1ccc(NC(=O)[C@@H](Cc2ccccc2)NC(=O)[C@H](NC(=O)[C@H](N)Cc2ccccc2)C(C)C)cc1` (stereo partly drawn) [AW231] gave an IC50 [1, 10] of 4480 ± 290 nM and a CC50 (Vero cells [2]) of 6.6 ± 0.4 µM.

For `CC(ON1C(C)(C)CCCC1(C)C)c1ccc(NC(=O)[C@H](Cc2ccccc2)NC(=O)[C@@H](NC(=O)[C@H](Cc2ccccc2)NC(=O)OC(C)(C)C)C(C)C)cc1` (stereo partly drawn) [A3L, Boc-Phe-Val-Phe-anilide-TEMPO], the “effect on parasitemia and parasite cell cycle” value (F32-ART parasites) was “cytostatic-like effect”, the “activity against quiescent parasites in the QSA” value [4] was “no activity” and the IC50 [1, 9] was 300 ± 40 nM. The IC50 [1, 11] was 270 nM, the “Selectivity Index CC50/IC50” value [1] was >165 and the CC50 (Vero cells [3]) was > 50 µM.

In the case of `CC(ON(C(C)(C)C)C(C)(C)C)c1ccc(NC(=O)[C@H](Cc2ccccc2)NC(=O)[C@@H](NC(=O)[C@H](Cc2ccccc2)NC(=O)OC(C)(C)C)C(C)C)cc1` (stereo partly drawn) [A8L], the “effect on parasitemia and parasite cell cycle” value (F32-ART parasites) is reported as “cytostatic-like effect”, the “activation energy Ea” value ([5]; in t-BuPh) is reported as 120.9 kJ/mol and the “activation energy Ea” value ([5]; in water/n-PrOH 1/1 v/v) is reported as 120.9 kJ/mol. The “effect on parasite viability or development” value [6] was “no effect”, the “effect on parasite cell cycle” value ([7]; F32-TEM, 5 µM 48 h) was “cytostatic-like effect” and the “effect of repeated exposure for at least three days” value ([7]; once or twice a day for three days) was “elimination of parasites in a dose-dependent manner”. For the same molecule, the “activity against quiescent parasites in the QSA” value [4] was “no activity”, the IC50 [1, 9] was 270 ± 40 nM and the IC50 [1, 11] was 300 nM. The “Selectivity Index CC50/IC50” value [1] was >185, the CC50 (in vitro) was > 50000 nM and the “conversion of A8L on thermolysis” value ([8]; A8L/hemin molar ratio 1/1) was 88–89%. For the same molecule, the “conversion of A8L on thermolysis” value ([8]; air, absence of hemin) was 88–90%.

With `CC(ON1C(C)(C)CCCC1(C)C)c1ccc(NC(=O)[C@H](Cc2ccccc2)NC(=O)[C@@H](NC(=O)[C@H](Cc2ccccc2)NC(=O)CCC(=O)O)C(C)C)cc1` (stereo partly drawn) [A7L, suc-Phe-Val-Phe-anilide-TEMPO] the “stability of the prodrug” value (chymotrypsin; absence of chymotrypsin) was “stable at 37 °C”, the “activation by protease, release of nitroxide (EPR)” value (chymotrypsin; presence of chymotrypsin, HEPES buffer) was “activatable by chymotrypsin” and the IC50 [1, 9] was 5000 ± 3000 nM. For the same molecule, the “Selectivity Index CC50/IC50” value [1] was >10, the “pH above which soluble” value (Solubility in water) was “above 5.5” and the “EPR signal of TEMPO in the presence of PLM I” value (PLM I) was “no EPR signal of TEMPO could be observed”. For the same molecule, the CC50 (Vero cells [3]) was > 50 µM.

For `CC(ON1C(C)(C)CCCC1(C)C)c1ccc(NC(=O)[C@H](Cc2ccccc2)NC(=O)[C@@H](NC(=O)[C@@H](N)Cc2ccccc2)C(C)C)cc1` (stereo partly drawn) [A5L], the schistosomal population killed (S. mansoni) is listed as 50%, the IC50 [1, 10] is listed as > 50000 nM and the CC50 (Vero cells [3]) is listed as > 50 µM.
